Molecules are shown by their SMILES. A value given as a limit tells only on which side of the number the result lay.

In US20240051937A1, “ISOINDOLINONE AMIDE COMPOUNDS USEFUL TO TREAT DISEASES ASSOCIATED WITH GSPT1” (Monte Rosa Therapeutics, Inc., priority 2021, published 2024) one finds IC50 and DC50 data, which are given here for 15 compounds.

The target in one experiment is T1, Full length wild-type cereblon CRBN (Homo sapiens, UniProt Q96SW2).
T1 construct: Full length wild-type cereblon CRBN (80.0 nM, 10 μL) was incubated in assay buffer
T1 sequence (Q96SW2 whole entry): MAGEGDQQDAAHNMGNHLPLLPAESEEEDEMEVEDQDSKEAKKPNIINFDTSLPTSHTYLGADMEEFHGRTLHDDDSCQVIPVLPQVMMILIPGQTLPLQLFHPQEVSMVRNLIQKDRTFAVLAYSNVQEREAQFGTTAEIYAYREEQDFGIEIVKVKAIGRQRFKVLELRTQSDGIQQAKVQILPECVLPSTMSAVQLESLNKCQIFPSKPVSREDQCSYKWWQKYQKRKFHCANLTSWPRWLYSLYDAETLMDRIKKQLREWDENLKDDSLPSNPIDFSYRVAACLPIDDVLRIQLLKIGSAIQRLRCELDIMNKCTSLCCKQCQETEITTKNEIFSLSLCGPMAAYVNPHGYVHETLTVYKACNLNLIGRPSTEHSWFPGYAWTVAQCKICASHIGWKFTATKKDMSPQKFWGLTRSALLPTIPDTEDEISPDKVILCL
As to the kind of experiment: Fluorescence polarization (FP) assay indicating cereblon binding. Conditions: cereblon binding, CRBN 80.0 nM, probe 5 nM, FP read after 12 hours; read-out: rFP IC50. The source says: Protocol for Fluorescent Polarization Assay
Compound activity was monitored in a fluorescence polarization (FP) homogeneous assay using 1-[5-({2-[2-(2-{[2-(2,6-dioxopiperidin-3-yl)-1,3-dioxo-2,3-dihydro-1H-isoindol-4-yl]oxy}acetamido)ethoxy]ethyl}carbamoyl)pentyl]-3,3-dimethyl-2-[(1E,3E)-5-[(2E)-1,3,3-trimethyl-5-sulfo-2,3-dihydro-1H-indol-2-ylidene]penta-1,3-dien-1-yl]-3H-indol-1-ium-5-sulfonate as a fluorescent probe. Unless otherwise stated, all reagents were purchased from Sigma Aldrich. Enzymatic reactions were conducted in Perkin-Elmer Black 384 well ProxiPlate Plus (catalogue no. 6008269) in 10 μL total volume. Full length wild-type cereblon CRBN (80.0 nM, 10 μL) was incubated in assay buffer containing 20 mM HEPES (pH 8.0), […], 0.5 mM TCEP and 0.05% Tween 20 in the presence or absence of compound (300 nL). Inhibitors were stored as 10 mM DMSO stocks in an inert environment (low humidity, dark, low oxygen, room temperature) using the Storage Pod System. Compounds and DMSO were dispensed using the Echo E5XX (Labcyte Inc. USA) to give concentrations from 300 to 0.937 or 3000 to 9.3 nM in a 12 data point curve. […] Following incubation at room temperature for 30 min, the assay was initiated by dispensing the probe to a final concentration of 5 nM (2.5 nL of a 20 μM stock) using the Echo E5XX. FP was measured after a period of 12 hours using a Pherastar plate reader (BMG Labtech, Germany) exciting at 590 nm and measuring the amount of parallel and perpendicular light at 675 nm. The FP signal was subsequently normalized to the no-compound control (i.e., DMSO). Analysis and IC50 values were derived using Dotmatics (Dotmatics UK) software.
What is called IC50 is the concentration at which inhibition is half-maximal. Take `O=C1CCC(N2Cc3ccc(CCC(=O)Nc4cc(F)cc(Cl)c4)cc3C2=O)C(=O)N1` (centres unmarked) [Compound 18]: the half-maximal inhibitory concentration (IC50) is over 1700 nM.
On the same count and under the same terms, the value for `O=C1CCC(N2Cc3ccc(CCC(=O)Nc4cc(Cl)cc(OC5CCNC5)c4)cc3C2=O)C(=O)N1` (centres unmarked) [Compound 19] was 500 to 1100 nM; that for `O=C1CCC(N2Cc3ccc(CCC(=O)Nc4ccc(N5CCCCC5)nc4)cc3C2=O)C(=O)N1` (centres unmarked) [Compound 20] was 500 to 1100 nM; that for `O=C1CCC(N2Cc3ccc(CCC(=O)N4CCC(Oc5ccccc5)C4)cc3C2=O)C(=O)N1` (centres unmarked) [Compound 21] was over 1700 nM.
For `Cc1c(Cl)cc(NC(=O)CCc2ccc3c(c2)C(=O)N(C2CCC(=O)NC2=O)C3)cc1CN1CC2CC1CO2` (centres unmarked) [Compound 22], the IC50 is 500 to 1100 nM.
Still for that read-out and setting: then `O=C1CCC(N2Cc3ccc(CCC(=O)Nc4cc(Cl)cc(OC(F)F)c4)cc3C2=O)C(=O)N1` (centres unmarked) [Compound 23], with over 1700 nM.
In the case of `Cc1c(Cl)cc(NC(=O)CCc2ccc3c(c2)C(=O)N(C2CCC(=O)NC2=O)C3)cc1CN1CC2CCC(C1)O2` (centres unmarked) [Compound 24], the IC50 lay in the range of 1100 to 1700 nM.
As to `O=C1CCC(N2Cc3ccc(CCC(=O)Nc4cc(Cl)cc(OCC5CCNC5)c4)cc3C2=O)C(=O)N1` (centres unmarked) [Compound 25], the IC50 lay within 500 to 1100 nM.
The same measure, in the same setting: then `O=C1CCC(N2Cc3ccc(CCC(=O)Nc4ccc5c(c4)OCC5)cc3C2=O)C(=O)N1` (centres unmarked) [Compound 26], with 500 to 1100 nM.
The same measure, in the same setting: then `O=C1CCC(N2Cc3ccc(CCC(=O)N4CCN(c5ccccc5)CC4)cc3C2=O)C(=O)N1` (centres unmarked) [Compound 27], with over 1700 nM; and `O=C1CCC(N2Cc3ccc(CCC(=O)Nc4cc(F)cc(OC(F)F)c4)cc3C2=O)C(=O)N1` (centres unmarked) [Compound 28], with 500 to 1100 nM; and `Cc1ccc(NC(=O)CCc2ccc3c(c2)C(=O)N(C2CCC(=O)NC2=O)C3)cc1OC(F)F` (centres unmarked) [Compound 29], with 1100 to 1700 nM.
On the same count and under the same terms, then `O=C1CCC(N2Cc3ccc(CCC(=O)Nc4ccc(F)c(OC(F)F)c4)cc3C2=O)C(=O)N1` (centres unmarked) [Compound 30], with 500 to 1100 nM; and `CN1CCC(Oc2cc(Cl)cc(NC(=O)CCc3ccc4c(c3)C(=O)N(C3CCC(=O)NC3=O)C4)c2)C1` (centres unmarked) [Compound 31], with 500 to 1100 nM; and `CCOc1cc(NC(=O)CCc2ccc3c(c2)C(=O)N(C2CCC(=O)NC2=O)C3)ccc1C` (centres unmarked) [Compound 32], with 500 to 1100 nM.

Still in this experiment, the particulars now being: fluorescence polarization assay; read-out: IC50 value (cereblon binding).
`O=C1CCC(N2Cc3ccc(CCC(=O)Nc4cc(Cl)cc(OC5CCNC5)c4)cc3C2=O)C(=O)N1` (centres unmarked) [Compound 19]: the IC50 was under 1100 nM.
As to `O=C1CCC(N2Cc3ccc(CCC(=O)Nc4ccc(N5CCCCC5)nc4)cc3C2=O)C(=O)N1` (centres unmarked) [Compound 20], the IC50 is under 1100 nM.
The same measure, in the same setting: the value for `Cc1c(Cl)cc(NC(=O)CCc2ccc3c(c2)C(=O)N(C2CCC(=O)NC2=O)C3)cc1CN1CC2CC1CO2` (centres unmarked) [Compound 22] was under 1100 nM; that for `O=C1CCC(N2Cc3ccc(CCC(=O)Nc4cc(Cl)cc(OCC5CCNC5)c4)cc3C2=O)C(=O)N1` (centres unmarked) [Compound 25] was under 1100 nM; that for `O=C1CCC(N2Cc3ccc(CCC(=O)Nc4ccc5c(c4)OCC5)cc3C2=O)C(=O)N1` (centres unmarked) [Compound 26] was under 1100 nM.
On the same count and under the same terms, the value for `O=C1CCC(N2Cc3ccc(CCC(=O)Nc4cc(F)cc(OC(F)F)c4)cc3C2=O)C(=O)N1` (centres unmarked) [Compound 28] was under 1100 nM; that for `O=C1CCC(N2Cc3ccc(CCC(=O)Nc4ccc(F)c(OC(F)F)c4)cc3C2=O)C(=O)N1` (centres unmarked) [Compound 30] was under 1100 nM; that for `CN1CCC(Oc2cc(Cl)cc(NC(=O)CCc3ccc4c(c3)C(=O)N(C3CCC(=O)NC3=O)C4)c2)C1` (centres unmarked) [Compound 31] was under 1100 nM.
On the same count and under the same terms, then `CCOc1cc(NC(=O)CCc2ccc3c(c2)C(=O)N(C2CCC(=O)NC2=O)C3)ccc1C` (centres unmarked) [Compound 32], with under 1100 nM.

The target in another experiment is GSPT1 (Homo sapiens, UniProt P15170+Q96SW2). Briefly: Immunofluorescence assay for GSPT1 degradation in CAL-Si cells. The experiment is classed as cell-based. Set-up: CAL-Si cells were purchased from DSMZ (cat. Number ACC302); host or cells: CAL-Si (CAL-51) cells. Conditions: 6 hours treatment, read-out: Code: activity for GSPT1 degradation (DC50). The protocol: The representative compounds were tested in an immunofluorescence assay for their activity to bind to degrade GSPT1. CAL-Si cells were purchased from DSMZ (cat. Number ACC302), sub-cultured in 90% Dulbecco's MEM (4.5 g/L glucose, Gibco 11965)+10% […] inactivated FBS (BioConcept, 2-01F136I) and incubated at 37° C., 5% CO2. For the assay, imaging microtiterplate Cell Carrier 96 Ultra (Perkin Elmer 6055302) were pre-coated with Fibronectin (Sigma F085, 30 μl at 0.2 μg/ml) in PBS (100 μl, Gibco 14190) for 45 min at room temperature, rinsed with PBS and CAL-Si cells (30K cells/well) were plated and let to adhere overnight. Cells were treated with compounds typically using a serial dilution ranging from 30 μM to 0.1 nM for 6 hours. Compounds were stored at 10 mM DMSO stocks. Vehicle (DMSO), positive (CC-885, 10 μM) and rescue controls (positive control plus 0.2 μM bortezomib) were also included at this stage. Cells were subsequently rinsed with PBS and fixed in 10% Formalin solution (50 μl, Sigma HT5011)) for 20 mins at room temperature. Following three consecutive PBS washes (100 μl), cells were permeabilized in 0.1% Triton X-100 in PBS (Sigma 93443, 50 μl) for 15 mins at room temperature. Following three further PBS washes, […] blocking buffer (1% BSA, Sigma A4503, in PBS) was added for 45 min for signal-to-noise reduction.
Chain of GSPT1 (P15170 whole entry): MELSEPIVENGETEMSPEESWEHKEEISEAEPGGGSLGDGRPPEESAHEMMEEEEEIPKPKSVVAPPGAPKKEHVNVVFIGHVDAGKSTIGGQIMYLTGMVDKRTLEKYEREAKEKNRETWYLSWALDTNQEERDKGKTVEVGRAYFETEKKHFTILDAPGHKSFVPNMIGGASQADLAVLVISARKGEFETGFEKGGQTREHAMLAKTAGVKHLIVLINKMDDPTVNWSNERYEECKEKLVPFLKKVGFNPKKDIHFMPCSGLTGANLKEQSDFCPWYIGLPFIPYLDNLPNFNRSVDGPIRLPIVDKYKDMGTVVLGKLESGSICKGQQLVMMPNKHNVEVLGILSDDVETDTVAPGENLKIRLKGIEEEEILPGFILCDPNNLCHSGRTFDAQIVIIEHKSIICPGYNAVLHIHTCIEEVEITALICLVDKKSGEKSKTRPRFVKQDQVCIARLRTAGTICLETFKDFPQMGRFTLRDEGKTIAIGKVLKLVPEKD
Chain of GSPT1 (Q96SW2 whole entry): as the sequence (Q96SW2 whole entry) above
Chain of GSPT1 (Q16531 whole entry partner): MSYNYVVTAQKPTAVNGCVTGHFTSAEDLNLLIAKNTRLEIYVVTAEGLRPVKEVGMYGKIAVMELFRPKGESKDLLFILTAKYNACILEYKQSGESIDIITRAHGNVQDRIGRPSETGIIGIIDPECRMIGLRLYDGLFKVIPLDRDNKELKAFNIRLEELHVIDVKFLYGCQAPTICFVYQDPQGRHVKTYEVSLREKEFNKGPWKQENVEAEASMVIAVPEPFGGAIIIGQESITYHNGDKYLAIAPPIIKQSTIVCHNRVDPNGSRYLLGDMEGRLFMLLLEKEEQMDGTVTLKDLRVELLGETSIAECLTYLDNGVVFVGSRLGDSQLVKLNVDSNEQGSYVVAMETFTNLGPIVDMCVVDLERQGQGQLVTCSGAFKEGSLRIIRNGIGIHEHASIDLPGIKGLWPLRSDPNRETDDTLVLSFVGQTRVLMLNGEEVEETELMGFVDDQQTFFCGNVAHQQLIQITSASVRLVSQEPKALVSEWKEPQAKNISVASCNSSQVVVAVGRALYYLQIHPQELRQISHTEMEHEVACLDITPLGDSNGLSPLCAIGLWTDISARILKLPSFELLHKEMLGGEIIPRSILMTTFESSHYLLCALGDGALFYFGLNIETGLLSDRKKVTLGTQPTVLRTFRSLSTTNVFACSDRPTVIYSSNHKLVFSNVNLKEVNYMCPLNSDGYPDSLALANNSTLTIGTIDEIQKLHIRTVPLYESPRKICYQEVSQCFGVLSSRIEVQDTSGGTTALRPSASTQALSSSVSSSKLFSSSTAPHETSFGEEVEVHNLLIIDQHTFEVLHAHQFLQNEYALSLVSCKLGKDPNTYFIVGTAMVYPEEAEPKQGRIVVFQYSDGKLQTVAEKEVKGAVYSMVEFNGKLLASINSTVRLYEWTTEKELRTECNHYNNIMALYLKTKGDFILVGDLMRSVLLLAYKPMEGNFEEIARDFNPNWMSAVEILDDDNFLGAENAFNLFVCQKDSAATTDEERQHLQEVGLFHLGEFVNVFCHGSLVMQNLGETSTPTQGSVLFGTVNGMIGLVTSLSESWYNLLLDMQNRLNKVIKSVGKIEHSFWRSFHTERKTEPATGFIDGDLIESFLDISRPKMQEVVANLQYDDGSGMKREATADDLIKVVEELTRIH
Primary antibody (human GSPT1, Sigma HPA052488) was diluted in blocking buffer (dil.1/300, 35 μl/well) and incubated with the cells overnight at 4° C. After three PBS washes, Alexa-fluor 488 coupled secondary antibodies (Invitrogen, A32731, dil.1/1000), Alexa-fluor 647-Phalloidin (Invitrogen, A22287, dil.1/200) and DAPI (Thermo, #62248, dil.1/1000) were diluted in blocking buffer and incubated with the samples for 2 hours at room temperature. After three final PBS washes, samples were conserved in […] PBS in the dark, until measurement. Image acquisition was performed on the Operetta High-Content Imager (Perkin-Elmer). Fluorescence intensity of Alexa-Fluor 488 (GSPT1), Alexa-Fluor 647 (Actin) and DAPI (Nucleus) were measured. For the determination of GSPT1 DC50 values, a custom algorithm implemented in the PerkinElmer image analysis software Harmony-Acapella® was developed. After user-defined setting of adjustment parameters, the analysis was run identically without human intervention for all image fields. DAPI staining of the nuclei was used to determine the location of cells using standard nuclei detection modules. Segmentation artifacts were removed by threshold-based filters for area, roundness and intensity. The outline of the cells was determined analogously from the sum of the normalized, smoothed DAPI and Actin channel, starting from each nucleus.
The Alexa-Fluor 488 (GSPT1) signal intensity in each cell was finally measured, in order to obtain a Mean intensity per cell. GSPT1 degradation (DC50) was calculated after normalization to controls and data import in CDD vault Database, using non-linear regression.
Usually DC50 stands for the concentration at which degradation of the target reaches its halfway point. With `O=C1CCC(N2Cc3ccc(CCC(=O)Nc4cc(F)cc(Cl)c4)cc3C2=O)C(=O)N1` (centres unmarked) [Compound 18], the DC50 was over 300 nM.
`O=C1CCC(N2Cc3ccc(CCC(=O)Nc4cc(Cl)cc(OC5CCNC5)c4)cc3C2=O)C(=O)N1` (centres unmarked) [Compound 19]: the DC50 was over 300 nM.
On the same count and under the same terms, the value for `O=C1CCC(N2Cc3ccc(CCC(=O)Nc4ccc(N5CCCCC5)nc4)cc3C2=O)C(=O)N1` (centres unmarked) [Compound 20] was 30 to 300 nM; that for `O=C1CCC(N2Cc3ccc(CCC(=O)N4CCC(Oc5ccccc5)C4)cc3C2=O)C(=O)N1` (centres unmarked) [Compound 21] was over 300 nM.
`Cc1c(Cl)cc(NC(=O)CCc2ccc3c(c2)C(=O)N(C2CCC(=O)NC2=O)C3)cc1CN1CC2CC1CO2` (centres unmarked) [Compound 22]: the DC50 lay within 30 to 300 nM.
For the compound `O=C1CCC(N2Cc3ccc(CCC(=O)Nc4cc(Cl)cc(OC(F)F)c4)cc3C2=O)C(=O)N1` (centres unmarked) [Compound 23], the DC50 is at most 30 nM.
Still for that read-out and setting: then `Cc1c(Cl)cc(NC(=O)CCc2ccc3c(c2)C(=O)N(C2CCC(=O)NC2=O)C3)cc1CN1CC2CCC(C1)O2` (centres unmarked) [Compound 24], with 30 to 300 nM; and `O=C1CCC(N2Cc3ccc(CCC(=O)Nc4cc(Cl)cc(OCC5CCNC5)c4)cc3C2=O)C(=O)N1` (centres unmarked) [Compound 25], with over 300 nM; and `O=C1CCC(N2Cc3ccc(CCC(=O)Nc4ccc5c(c4)OCC5)cc3C2=O)C(=O)N1` (centres unmarked) [Compound 26], with over 300 nM.
For `O=C1CCC(N2Cc3ccc(CCC(=O)N4CCN(c5ccccc5)CC4)cc3C2=O)C(=O)N1` (centres unmarked) [Compound 27], the DC50 was over 300 nM.
Same read-out and setting: the value for `O=C1CCC(N2Cc3ccc(CCC(=O)Nc4cc(F)cc(OC(F)F)c4)cc3C2=O)C(=O)N1` (centres unmarked) [Compound 28] was 30 to 300 nM; that for `Cc1ccc(NC(=O)CCc2ccc3c(c2)C(=O)N(C2CCC(=O)NC2=O)C3)cc1OC(F)F` (centres unmarked) [Compound 29] was at most 30 nM.
Take `O=C1CCC(N2Cc3ccc(CCC(=O)Nc4ccc(F)c(OC(F)F)c4)cc3C2=O)C(=O)N1` (centres unmarked) [Compound 30]: the DC50 was 30 to 300 nM.
In the case of `CN1CCC(Oc2cc(Cl)cc(NC(=O)CCc3ccc4c(c3)C(=O)N(C3CCC(=O)NC3=O)C4)c2)C1` (centres unmarked) [Compound 31], the DC50 lay in the range of 30 to 300 nM.
For `CCOc1cc(NC(=O)CCc2ccc3c(c2)C(=O)N(C2CCC(=O)NC2=O)C3)ccc1C` (centres unmarked) [Compound 32], the DC50 fell in the range of 30 to 300 nM.

The same experiment, now with this note: GSPT1 degradation, 6 hours treatment, read-out: DC50.
For `O=C1CCC(N2Cc3ccc(CCC(=O)Nc4cc(Cl)cc(OC(F)F)c4)cc3C2=O)C(=O)N1` (centres unmarked) [Compound 23], the DC50 came to 27 nM.
Turning to `Cc1ccc(NC(=O)CCc2ccc3c(c2)C(=O)N(C2CCC(=O)NC2=O)C3)cc1OC(F)F` (centres unmarked) [Compound 29], the DC50 was found to be 6 nM.
